This note sets out measurements from US8647835B2, “Methods for separation, characterization and/or identification of microorganisms using spectroscopy” (bio Mérieux, Inc., priority 2008, dated 2014).

Holding throughout (format): cell-based
For experiment [1], the system named is Streptococcus pneumoniae, strain WM-43. The experiment in a line: Gram stain and viability of S. pneumoniae recovered from pellet after detergent lysis buffer. To be noted: for Viability of Pellet: 1:100 dilution plated onto Sheep Blood Agar, scale NG to 4+. How it is done:
(§1) Lysis buffers were prepared containing detergents of differing structure and lytic activity in a base buffer formulation of 0.3M CAPS, pH 11.7. These lysis buffers were functionally assessed using positive blood culture broth containing a clinical microorganism strain known to be sensitive to detergents and alkaline pH conditions, Streptococcus pneumoniae, strain WM-43. Parameters evaluated were microbial intrinsic fluorescence levels (Excitation-Emission Matrix spectra), separation efficiency, appearance of isolated microbial pellet, and Gram stain characteristics and viability of microorganisms recovered from the pellet beneath the density cushion.
(§2) The procedure was performed as follows:
(§3) Mix 2 parts of positive broth with 1 part of test lysis buffer, incubate in a 37 C water bath for 1 minute to lyse blood cells, then layer 0.5 mL of lysate over 0.2 mL of density cushion (14% w/v Iohexyl+1.93% w/v NaCl+10 mM Hepes, pH 7.4) dispensed into a 2-piece optical separation tube which was then hermetically sealed with a screw-cap. After centrifuging the tube in an Eppendorf® 5417R micrcentrifuge fitted with a A-8-11 swing out rotor (Eppendorf, New York) for 2 minutes at 10,000 rpm, the tube was placed into a custom-built adapter which coupled the base of the tube directly to a 400 micron fiber optic probe connected to a spectrofluorimeter (Fluorolog® 3 (HORIBA Jobin Yvon Inc., New Jersey), and a complete EEM scan was taken (Ex 260-850 nm; Em 260-1100 nm; every 5 nm). Following the scan, the supernatant was removed and the microbial pellet resuspended in 0.5 mL of Tryptic Soy Broth (TSB). Smears of the suspensions were prepared for Gram staining and twenty microliters of a 1:100 dilution were plated onto Sheep Blood Agar plates for viability estimation on a scale of NG (no growth) to 4+ (maximal growth).

Experiment [2] has the same test system. In words: Intrinsic fluorophores of S. pneumoniae pellet after detergent lysis buffer. To be noted: for Flavin/NADH surrogate marker for viability: S. pneumoniae cell pellet; for Flavin / NADH / Tryptophan: intrinsic fluorophore level of S. pneumoniae cell pellet, detergent in 0.3M CAPS, pH 11.7; for NADH/Flavin: ratio of fluorescence signals of S. pneumoniae cell pellet. How it is done: as §1, §2, §3
The effect of the test detergents on the level of intrinsic fluorophores present within the S. pneumoniae cell pellet is shown in Table 5. As taught by the results presented in Example 3, the ratio of Flavin to NADH fluorescence is an excellent indicator of this sensitive microbe's health. Low ratios are associated with reduced microbial viability, such as observed with n-octyl glucoside and CHAPS detergents. The four groups represented in Table 5 fall into categories that directly correlate with the alterations observed in Gram reactivity of the S. pneumoniae cells recovered from the pellet (Table 4).

Experiment [3] relates to S. pneumoniae strain, WM43. In words: Viability of recovered S. pneumoniae with lysis buffer / density cushion combinations (Example 7). To be noted: irrespective of the makeup of the density cushion.

Consider `CCCCCCCCO[C@@H]1O[C@H](CO)[C@@H](O)[C@H](O)[C@H]1O` [Detergent 1, n-octyl glucoside], for which, in experiment [1], the “Viability of Pellet” value is recorded as “No growth”. Moreover, the “Gram Stain of Pellet, Bacteria (cocci): Gram positive” value in experiment [1] (detergent at table concentration (0.45-3.0%) in 0.3M CAPS, pH 11.7, 1 minute 37 C, 'No organisms seen' applies to all cocci) is reported as “No organisms seen”. Further, in experiment [2], the “Flavin/NADH surrogate marker for viability” value (“Flavin/NADH surrogate marker” for short) is given as “Low ratios”, the Flavin is on record as 71,678, the NADH was 33,268 and the Tryptophan was 606,171. Also, the NADH/Flavin in experiment [2] is reported as 0.5.
For `C[C@H](CCC(=O)NCCC[N+](C)(C)CCCS(=O)(=O)[O-])[C@H]1CC[C@H]2[C@@H]3[C@H](O)C[C@@H]4C[C@H](O)CC[C@]4(C)[C@H]3C[C@H](O)[C@]12C` [Detergent 2, CHAPS], the “Viability of Pellet” value in experiment [1] is reported as “Scant”. Further, in experiment [1] (detergent at table concentration (0.45-3.0%) in 0.3M CAPS, pH 11.7, 1 minute 37 C), the “Gram Stain of Pellet, Bacteria (cocci): Gram negative” value is listed as “Rare Gram”. Further, in experiment [2], the “Flavin/NADH surrogate marker” value is “Low ratios”, the Flavin was 77,403, the NADH is listed as 55,976 and the Tryptophan is on record as 607,343. The NADH/Flavin in experiment [2] came out at 0.7.
On to `CCCCCCCCCCCCOCCOCCOCCOCCOCCOCCOCCOCCOCCO` [Detergent 6, nonaethylene glycol monododecyl ether], for which the “effect on Gram reaction / Gram reactivity of S. pneumoniae isolate” value in experiment [1] (desired lysis conditions of Example 6) is reported as “relatively minor effect”. Moreover, the NADH/Flavin in experiment [2] stood at 34.5. Further, in experiment [3], the “viability of the recovered S. pneumoniae cells” value is recorded as “not as high”.
With “(Octylphenoxy)polyethoxyethanol [Detergent 4]”, in experiment [2], the Flavin is 38,703, the NADH is recorded as 1,300,815, the Tryptophan is 1,019,649 and the NADH/Flavin was 33.6.
Regarding “polyoxyethylene (20) oleyl ether [Detergent 12]”, in experiment [2], the “Flavin/NADH surrogate marker” value is on record as “significant improvement”, the Flavin is on record as 29,781, the NADH is 1,703,221 and the Tryptophan is on record as 1,047,866. Moreover, the NADH/Flavin in experiment [2] worked out at 57.2.
